Measured values as given in paper PMC11650766 (ACS Infectious Diseases, 2024).

How the values were obtained:
Test in all cases: iSPP stabilization in E. coli K12 lysate at […], LC-MS/MS
Assay type in all cases: cell-based
PBP1a (MrcA) = molecular target: T1, PBP1a (MrcA) (Escherichia coli, UniProt P02918)
T1 sequence (P02918 1-850): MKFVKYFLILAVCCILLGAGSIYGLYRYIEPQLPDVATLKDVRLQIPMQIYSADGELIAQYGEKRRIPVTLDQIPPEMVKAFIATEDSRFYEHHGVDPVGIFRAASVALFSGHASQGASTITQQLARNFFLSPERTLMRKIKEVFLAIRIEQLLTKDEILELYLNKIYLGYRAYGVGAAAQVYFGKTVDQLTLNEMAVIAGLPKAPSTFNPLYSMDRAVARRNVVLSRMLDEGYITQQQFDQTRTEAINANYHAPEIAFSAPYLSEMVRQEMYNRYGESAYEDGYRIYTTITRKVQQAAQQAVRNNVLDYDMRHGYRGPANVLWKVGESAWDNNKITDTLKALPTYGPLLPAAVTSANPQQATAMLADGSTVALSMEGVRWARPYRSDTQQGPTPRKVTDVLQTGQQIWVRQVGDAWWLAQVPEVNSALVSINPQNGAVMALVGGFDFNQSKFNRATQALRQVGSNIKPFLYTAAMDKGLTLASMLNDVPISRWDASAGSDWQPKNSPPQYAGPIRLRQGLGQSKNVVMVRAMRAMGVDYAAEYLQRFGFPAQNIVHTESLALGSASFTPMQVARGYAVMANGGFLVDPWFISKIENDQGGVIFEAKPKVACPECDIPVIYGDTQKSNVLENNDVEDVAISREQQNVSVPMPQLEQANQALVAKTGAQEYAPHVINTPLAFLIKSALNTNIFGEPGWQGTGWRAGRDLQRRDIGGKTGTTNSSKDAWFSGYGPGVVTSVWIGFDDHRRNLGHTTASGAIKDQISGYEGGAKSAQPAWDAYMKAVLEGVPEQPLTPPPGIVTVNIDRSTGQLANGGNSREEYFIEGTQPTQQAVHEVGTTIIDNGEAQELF

PBP4 (DacB) = PBP4 (DacB) (Escherichia coli, UniProt P24228)
[1] = molecular target: RpoB (RNA polymerase β-subunit) (Escherichia coli, UniProt P0A8V2)
Sequence of RpoB (RNA polymerase β-subunit) (P0A8V2 whole entry): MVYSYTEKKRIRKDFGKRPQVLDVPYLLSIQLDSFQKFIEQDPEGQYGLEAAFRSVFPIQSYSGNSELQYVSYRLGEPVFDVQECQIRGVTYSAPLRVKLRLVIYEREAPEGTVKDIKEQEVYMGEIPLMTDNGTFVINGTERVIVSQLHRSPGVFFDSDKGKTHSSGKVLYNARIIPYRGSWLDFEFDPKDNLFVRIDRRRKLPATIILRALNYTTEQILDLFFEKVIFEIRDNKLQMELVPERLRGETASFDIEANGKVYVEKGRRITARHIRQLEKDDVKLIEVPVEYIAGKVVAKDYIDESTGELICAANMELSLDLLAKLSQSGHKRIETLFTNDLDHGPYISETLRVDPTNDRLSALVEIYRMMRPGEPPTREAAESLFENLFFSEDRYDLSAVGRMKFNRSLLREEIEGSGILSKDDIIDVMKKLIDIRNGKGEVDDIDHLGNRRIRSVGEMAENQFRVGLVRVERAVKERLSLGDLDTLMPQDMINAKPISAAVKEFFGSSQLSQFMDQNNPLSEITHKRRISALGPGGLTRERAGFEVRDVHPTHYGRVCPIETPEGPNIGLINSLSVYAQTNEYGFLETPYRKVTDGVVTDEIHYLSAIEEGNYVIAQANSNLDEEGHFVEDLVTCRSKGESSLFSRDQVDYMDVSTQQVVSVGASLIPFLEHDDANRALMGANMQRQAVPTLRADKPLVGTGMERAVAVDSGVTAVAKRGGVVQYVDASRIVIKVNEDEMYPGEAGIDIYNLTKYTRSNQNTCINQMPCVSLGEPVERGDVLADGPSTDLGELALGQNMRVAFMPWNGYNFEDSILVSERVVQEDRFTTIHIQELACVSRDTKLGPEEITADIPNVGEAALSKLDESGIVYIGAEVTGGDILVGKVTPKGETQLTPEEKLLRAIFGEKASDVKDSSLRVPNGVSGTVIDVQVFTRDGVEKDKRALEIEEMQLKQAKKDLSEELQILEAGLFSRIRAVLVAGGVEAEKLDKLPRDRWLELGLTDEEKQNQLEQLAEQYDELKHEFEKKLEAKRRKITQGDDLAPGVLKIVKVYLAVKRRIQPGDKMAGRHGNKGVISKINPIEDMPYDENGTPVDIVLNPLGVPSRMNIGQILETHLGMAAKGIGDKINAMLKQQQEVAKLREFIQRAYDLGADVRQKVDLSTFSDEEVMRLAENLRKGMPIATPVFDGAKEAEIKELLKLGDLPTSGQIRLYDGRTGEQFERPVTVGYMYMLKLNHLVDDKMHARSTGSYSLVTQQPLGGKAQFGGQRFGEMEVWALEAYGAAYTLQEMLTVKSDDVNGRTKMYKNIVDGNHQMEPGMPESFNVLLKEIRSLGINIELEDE
Sequence of RpoB (RNA polymerase β-subunit) (P0A8T7 whole entry partner): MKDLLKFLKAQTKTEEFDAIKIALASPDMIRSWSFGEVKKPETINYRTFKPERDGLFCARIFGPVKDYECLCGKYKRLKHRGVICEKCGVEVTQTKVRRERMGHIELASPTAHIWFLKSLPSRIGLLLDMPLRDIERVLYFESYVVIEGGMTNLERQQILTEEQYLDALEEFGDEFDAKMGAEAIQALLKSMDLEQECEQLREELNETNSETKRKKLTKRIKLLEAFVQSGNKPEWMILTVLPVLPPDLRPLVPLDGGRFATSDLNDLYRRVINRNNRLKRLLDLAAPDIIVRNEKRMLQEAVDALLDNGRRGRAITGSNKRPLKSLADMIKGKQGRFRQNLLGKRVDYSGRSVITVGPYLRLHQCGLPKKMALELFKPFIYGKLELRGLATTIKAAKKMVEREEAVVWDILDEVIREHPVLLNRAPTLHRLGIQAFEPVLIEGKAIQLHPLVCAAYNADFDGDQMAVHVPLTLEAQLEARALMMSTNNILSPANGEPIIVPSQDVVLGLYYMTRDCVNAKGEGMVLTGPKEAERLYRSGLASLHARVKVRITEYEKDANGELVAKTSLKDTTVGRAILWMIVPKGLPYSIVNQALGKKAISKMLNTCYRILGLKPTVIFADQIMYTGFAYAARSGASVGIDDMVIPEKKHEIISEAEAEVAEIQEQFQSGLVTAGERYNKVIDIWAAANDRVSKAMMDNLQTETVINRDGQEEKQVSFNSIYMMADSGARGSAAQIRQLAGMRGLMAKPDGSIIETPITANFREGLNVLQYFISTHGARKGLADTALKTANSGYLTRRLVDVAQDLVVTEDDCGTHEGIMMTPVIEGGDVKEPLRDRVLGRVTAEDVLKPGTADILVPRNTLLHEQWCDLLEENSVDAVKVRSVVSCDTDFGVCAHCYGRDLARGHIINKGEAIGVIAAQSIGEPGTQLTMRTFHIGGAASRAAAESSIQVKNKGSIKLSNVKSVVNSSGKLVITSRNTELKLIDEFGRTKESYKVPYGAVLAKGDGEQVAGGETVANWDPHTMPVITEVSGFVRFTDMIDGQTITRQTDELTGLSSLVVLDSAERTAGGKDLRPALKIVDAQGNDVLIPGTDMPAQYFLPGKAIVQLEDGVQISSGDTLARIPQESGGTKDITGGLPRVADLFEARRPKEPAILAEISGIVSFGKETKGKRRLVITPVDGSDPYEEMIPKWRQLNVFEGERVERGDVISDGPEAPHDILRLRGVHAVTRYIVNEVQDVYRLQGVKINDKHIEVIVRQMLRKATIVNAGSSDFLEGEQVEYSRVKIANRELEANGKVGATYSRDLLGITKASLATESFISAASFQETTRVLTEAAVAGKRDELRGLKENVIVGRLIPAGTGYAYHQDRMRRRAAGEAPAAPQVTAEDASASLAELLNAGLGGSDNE
Sequence of RpoB (RNA polymerase β-subunit) (P0A7Z4 whole entry partner): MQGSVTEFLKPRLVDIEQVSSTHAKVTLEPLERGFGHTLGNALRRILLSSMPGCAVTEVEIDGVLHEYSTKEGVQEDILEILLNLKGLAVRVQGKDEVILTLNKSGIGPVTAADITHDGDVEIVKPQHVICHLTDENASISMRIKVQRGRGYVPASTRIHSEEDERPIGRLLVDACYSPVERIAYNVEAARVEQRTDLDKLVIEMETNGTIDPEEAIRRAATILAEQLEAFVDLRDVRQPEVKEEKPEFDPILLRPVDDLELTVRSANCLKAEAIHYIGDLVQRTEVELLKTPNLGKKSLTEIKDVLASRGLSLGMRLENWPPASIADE

Sequence of PBP4 (DacB) (P24228 21-477): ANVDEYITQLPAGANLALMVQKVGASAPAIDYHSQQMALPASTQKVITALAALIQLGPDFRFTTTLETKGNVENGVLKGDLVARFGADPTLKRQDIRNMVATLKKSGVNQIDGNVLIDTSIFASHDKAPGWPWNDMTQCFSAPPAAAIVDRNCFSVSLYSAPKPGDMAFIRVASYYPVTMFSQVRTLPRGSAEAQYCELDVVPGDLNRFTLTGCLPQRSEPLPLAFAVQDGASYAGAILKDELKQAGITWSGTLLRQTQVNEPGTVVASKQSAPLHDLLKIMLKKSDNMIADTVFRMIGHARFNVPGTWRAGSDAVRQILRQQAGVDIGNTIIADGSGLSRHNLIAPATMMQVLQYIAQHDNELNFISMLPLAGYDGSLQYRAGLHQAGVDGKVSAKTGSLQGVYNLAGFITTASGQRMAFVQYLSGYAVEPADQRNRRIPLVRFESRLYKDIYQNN

| Structure (SMILES) | iSPP stabilization in E. coli K12 lysate at 10 μM, LC-MS/MS (PBP1a (MrcA)) | iSPP stabilization in E. coli K12 lysate at 10 μM, LC-MS/MS (PBP4 (DacB)) | iSPP stabilization in E. coli K12 lysate at 10 μM, LC-MS/MS [1] |
| --- | --- | --- | --- |
| CC1(C)S[C@@H]2[C@H](NC(=O)[C@H](N)c3ccccc3)C(=O)N2[C@H]1C(=O)O [ampicillin] | Ampicillin led to a significant stabilization of PBP1a (MrcA) and PBP4 (DacB), the two top hits | Ampicillin led to a significant stabilization of PBP1a (MrcA) and PBP4 (DacB), the two top hits | – |
| CO[C@H]1/C=C/O[C@@]2(C)Oc3c(C)c(O)c4c(O)c(c(/C=N/N5CCN(C)CC5)c(O)c4c3C2=O)NC(=O)/C(C)=C\C=C\[C@H](C)[C@H](O)[C@@H](C)[C@@H](O)[C@@H](C)[C@H](OC(C)=O)[C@@H]1C [rifampicin] | – | – | for rifampicin, we observed (Figure 2A) the stabilization of other subunits within the RNAP complex in addition to the primary target RpoB |
